Common to all, as to type: cell-based
What all share (conditions): Table 3, compounds 101-177

One assay deals with T1, TRPML2 (Homo sapiens, UniProt Q8IZK6).
T1 construct: expressed in transfected cells
T1 sequence (Q8IZK6 1-566): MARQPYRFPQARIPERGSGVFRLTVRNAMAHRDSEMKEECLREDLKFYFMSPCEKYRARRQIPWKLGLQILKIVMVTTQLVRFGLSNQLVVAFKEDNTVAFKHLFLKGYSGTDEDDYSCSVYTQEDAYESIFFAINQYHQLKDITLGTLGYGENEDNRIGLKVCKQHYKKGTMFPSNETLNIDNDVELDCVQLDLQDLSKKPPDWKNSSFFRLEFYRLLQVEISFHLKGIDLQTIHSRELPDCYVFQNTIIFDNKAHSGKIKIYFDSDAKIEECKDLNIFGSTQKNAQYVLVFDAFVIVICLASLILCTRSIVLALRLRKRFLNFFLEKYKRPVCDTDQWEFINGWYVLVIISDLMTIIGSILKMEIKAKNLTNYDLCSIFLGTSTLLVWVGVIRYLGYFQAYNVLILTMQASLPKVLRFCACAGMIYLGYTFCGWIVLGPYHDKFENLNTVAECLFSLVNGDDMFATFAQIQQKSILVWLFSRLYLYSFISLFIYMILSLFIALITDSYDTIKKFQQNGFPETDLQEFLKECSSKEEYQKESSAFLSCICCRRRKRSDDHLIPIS
Kind of assay: Fluorescent TRPML2 assay (as for TRPML1). On the procedure: HEK-293 Trex cells were stably transfected with a construct consisting of the human coding sequence for TRPML1 cloned into the tet-inducible plasmid pCDNA5 T/O. Mutations were introduced into the TRPML1 sequence to facilitate expression on the cell surface (Silvia Vergarajauregui, Rosa Puertollano Traffic. 2006 March; 7 (3): 337-353). Briefly, the cells are cultured in 150 mm round tissue culture dishes containing 20 mL of media. The day before the assay the cells are rinsed with DPBS —Ca—Mg and then treated briefly with Trypsin-EDTA. The Trypsin-EDTA is diluted with growth media, and cells are counted. 38×10^6 cells are re-plated into 150 mm round tissue culture dishes in media containing 0.5 ug/mL doxycycline to induce expression of hTRPML1.
The day of the experiment cells are lifted from the plates as above and collected by centrifugation. The cells are then suspended in dye loading buffer consisting of Ringer's solution supplemented with 0.1% Pluronic Acid and 1 micromolar Fluo4-AM dye. Cells are loaded for ˜60 minutes in the dark with occasional mixing. The cells are collected by centrifugation, the loading media aspirated, and the cells resuspended in 25 mL Ringer's solution and incubated ˜60 minutes in the dark. The cells are again collected by centrifugation, rinsed in Ringer's Solution and resuspended to 0.2×10^6 cells/mL in modified Ringer's solution containing 10 mM calcium.
Compounds are dissolved to a concentration of 10 millimolar with DMSO. Compound plates are created by dispensing compounds into 384 well black wall clear bottom plates (Greiner 781091). Positive and negative controls are included on each plate. Typically, different amounts of each compound are tested ranging from 100 nanoMoles (20 micromolar final concentration) decreasing in half-log steps to 31 picoMoles (6 nanomolar final concentration). Each concentration is typically tested in triplicate.
50 microliters of dye-loaded cells are dispensed into each well of the compound assay plate created above. The fluorescence in each well is then determined with an excitation wavelength of 480 nm and an emission wavelength of 540 nm using either a Molecular Devices SpectraMax multimode plate reader or a Hamamatsu FDSS/uCell plate imager.
The resulting fluorescence for each well is exported as an ascii file and loaded into our LIMS for analysis. The percent activity of each compound at each concentration is determined by comparison to the positive and negative control wells included in each plate.
Assays for TRPML2 and TRPML3 were performed as above for TRPML1, by substituting the appropriate TRPML2 or TRPML3 subtype for the TRPML1.
EC50 values were calculated using a non-linear regression of Prism. In the table, “A” indicates an EC50 of less than 100 nM, “B” indicates an EC50 range from 100 nM to 500 nM; “C” indicates an EC50 range from 500 nM to 2 μM; and “D” indicates an EC50 greater than 2 μM.

The target in a further assay is human TRPML1 (Homo sapiens, UniProt Q9GZU1). In words: Fluorescent TRPML1 assay (Fluo4-AM calcium fluorescence, HEK-293 Trex cells). The method, boiled down:
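Agonist EC50 from non-linear regression of percent activity versus on-plate controls, calcium signal read at 480/540 nm. Compounds spanned 6 nM–20 μM final in triplicate. Cells: doxycycline-induced HEK-293 Trex with cell-surface human TRPML1 mutant, Fluo4-AM loaded, in Ringer's containing 10 mM calcium.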

A further assay concerns the target T2, TRPML3 (Homo sapiens, UniProt Q8TDD5).
T2 construct: expressed in transfected cells
T2 sequence (Q8TDD5 1-553): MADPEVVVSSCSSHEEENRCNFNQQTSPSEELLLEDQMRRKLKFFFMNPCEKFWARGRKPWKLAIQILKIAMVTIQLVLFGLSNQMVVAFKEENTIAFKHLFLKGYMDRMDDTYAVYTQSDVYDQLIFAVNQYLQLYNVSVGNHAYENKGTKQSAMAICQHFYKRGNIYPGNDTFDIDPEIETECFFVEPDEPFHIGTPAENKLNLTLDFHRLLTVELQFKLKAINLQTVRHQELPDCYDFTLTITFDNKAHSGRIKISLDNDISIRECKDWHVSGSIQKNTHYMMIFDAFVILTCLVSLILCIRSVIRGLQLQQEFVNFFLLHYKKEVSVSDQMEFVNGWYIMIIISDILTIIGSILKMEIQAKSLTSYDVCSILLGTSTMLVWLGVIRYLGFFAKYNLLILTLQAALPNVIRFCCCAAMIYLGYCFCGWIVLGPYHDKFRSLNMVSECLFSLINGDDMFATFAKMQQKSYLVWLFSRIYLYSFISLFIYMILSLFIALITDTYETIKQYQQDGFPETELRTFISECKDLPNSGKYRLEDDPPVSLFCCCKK
In words: Fluorescent TRPML3 assay (as for TRPML1). The method, boiled down: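 EC50 came from non-linear regression of percent activity, set against on-plate positive and negative controls, using Fluo4 fluorescence (ex 480, em 540 nm). Compounds ran in triplicate from 6 nM to 20 µM final in half-log steps. Doxycycline-induced (0.5 ug/mL) HEK-293 Trex cells expressing surface-directed mutant channel were in 10 mM calcium Ringer's.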

Molecules are shown by their SMILES.

human TRPML1, sequence (Q9GZU1 whole entry L15A/L16A/L577A/L578A, form open): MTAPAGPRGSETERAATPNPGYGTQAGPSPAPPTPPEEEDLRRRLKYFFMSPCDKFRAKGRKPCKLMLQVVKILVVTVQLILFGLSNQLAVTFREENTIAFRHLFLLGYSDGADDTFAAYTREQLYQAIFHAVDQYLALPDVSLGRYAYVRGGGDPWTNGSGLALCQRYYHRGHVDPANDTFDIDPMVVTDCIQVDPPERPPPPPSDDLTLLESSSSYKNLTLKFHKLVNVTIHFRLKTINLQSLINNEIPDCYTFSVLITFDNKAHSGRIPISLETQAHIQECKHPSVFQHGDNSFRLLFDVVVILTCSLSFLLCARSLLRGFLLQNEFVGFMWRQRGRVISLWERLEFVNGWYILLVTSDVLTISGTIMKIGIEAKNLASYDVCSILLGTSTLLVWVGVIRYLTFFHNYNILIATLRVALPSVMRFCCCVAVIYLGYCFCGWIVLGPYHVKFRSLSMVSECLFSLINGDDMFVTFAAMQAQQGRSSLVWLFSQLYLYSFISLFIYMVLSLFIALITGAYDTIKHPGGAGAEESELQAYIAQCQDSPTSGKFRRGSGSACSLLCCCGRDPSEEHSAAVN

As a reminder, the EC50 is the midpoint of the concentration-response curve. As for `C[C@@H]1CN(c2ncnc3c2c(C2CC2)cn3-c2cc(C#N)ccn2)CCN1C(=O)C(C)(C)C` [Compound 122, (R)-2-(5-cyclopropyl-4-(3-methyl-4-pivaloylpiperazin-1-yl)-7H-pyrrolo[2,3-d]pyrimidin-7-yl)isonicotinonitrile], the concentration giving a half-maximal response (EC50) at TRPML2 is 100 to 500 nM; at human TRPML1, less than 100 nM; on TRPML3 it was 100 to 500 nM.

Regarding `C[C@@H]1CN(c2ncnc3c2c(-c2ccccc2F)cn3-c2cc(C#N)ccn2)CCN1C(=O)C(C)(C)F` [Compound 126, (R)-2-(4-(4-(2-fluoro-2-methylpropanoyl)-3-methylpiperazin-1-yl)-5-(2-fluorophenyl)-7H-pyrrolo[2,3-d]pyrimidin-7-yl)isonicotinonitrile], the EC50 on TRPML2 is 100 to 500 nM; on human TRPML1 it was less than 100 nM; on TRPML3, less than 100 nM.

In the case of `C[C@H]1CN(C(=O)C2(C)CC2)CCN1c1ncnc2c1c(-c1ccccc1)cn2-c1cc(C#N)ccn1` [Compound 128, (S)-2-(4-(2-methyl-4-(1-methylcyclopropane-1-carbonyl)piperazin-1-yl)-5-phenyl-7H-pyrrolo[2,3-d]pyrimidin-7-yl)isonicotinonitrile], the EC50 on TRPML2, at human TRPML1 and at TRPML3 was less than 100 nM in each case.

With `C[C@@H]1CN(c2ncnc3c2c(C2CC2)cn3-c2cc(C#N)ccn2)CCN1C(=O)C(C)(C)F` [Compound 130, (R)-2-(5-cyclopropyl-4-(4-(2-fluoro-2-methylpropanoyl)-3-methylpiperazin-1-yl)-7H-pyrrolo[2,3-d]pyrimidin-7-yl)isonicotinonitrile], the values for the half-maximal effective concentration (EC50) at TRPML2, at human TRPML1 and on TRPML3 were 100 to 500 nM, less than 100 nM and less than 100 nM, respectively.

Turning to `C[C@@H]1CN(c2ncnc3c2c(-c2ccccc2F)cn3-c2cc(C#N)ccn2)CCN1C(=O)C1(F)CC1` [Compound 131], the 50% effective concentration (EC50) was 100 to 500 nM on TRPML2, less than 100 nM at human TRPML1 and less than 100 nM at TRPML3.

For the molecule `C[C@H]1CN(C(=O)CC(C)(C)C)CCN1c1ncnc2c1c(-c1ccccc1F)cn2-c1cc(C#N)ccn1` [Compound 133, (S)-2-(4-(4-(3,3-dimethylbutanoyl)-2-methylpiperazin-1-yl)-5-(2-fluorophenyl)-7H-pyrrolo[2,3-d]pyrimidin-7-yl)isonicotinonitrile], the EC50 on TRPML2 is 100 to 500 nM; at human TRPML1, less than 100 nM; at TRPML3 it was less than 100 nM.

With `CC(C)C(=O)N1C[C@H](C)N(c2ncnc3c2c(-c2ccccc2F)cn3-c2cc(C#N)ccn2)C[C@H]1C` [Compound 139, 2-(5-(2-fluorophenyl)-4-((2S,5R)-4-isobutyryl-2,5-dimethylpiperazin-1-yl)-7H-pyrrolo[2,3-d]pyrimidin-7-yl)isonicotinonitrile], the EC50 on TRPML2, at human TRPML1 and on TRPML3 was less than 100 nM each time.

Consider `C[C@H]1CN(C(=O)CC(C)(C)C(F)(F)F)CCN1c1ncnc2c1c(-c1ccccc1F)cn2-c1cc(C#N)ccn1` [Compound 140, (S)-2-(5-(2-fluorophenyl)-4-(2-methyl-4-(4,4,4-trifluoro-3,3-dimethylbutanoyl)piperazin-1-yl)-7H-pyrrolo[2,3-d]pyrimidin-7-yl)isonicotinonitrile], for which the EC50 at TRPML2, on human TRPML1 and on TRPML3 was less than 100 nM throughout.

In the case of `C[C@H]1CN(C(=O)CC(C)(C)C(F)(F)F)CCN1c1ncnc2c1c(C1CC1)cn2-c1cc(C#N)ccn1` [Compound 141, (S)-2-(5-cyclopropyl-4-(2-methyl-4-(4,4,4-trifluoro-3,3-dimethylbutanoyl)piperazin-1-yl)-7H-pyrrolo[2,3-d]pyrimidin-7-yl)isonicotinonitrile], the concentration giving a half-maximal response (EC50) was 100 to 500 nM on TRPML2, less than 100 nM at human TRPML1 and less than 100 nM on TRPML3.

Regarding `Cc1cc(C#N)cc(-n2cc(-c3ccccc3F)c3c(N4CCN(C(=O)C(C)C)C[C@@H]4C)ncnc32)n1` [Compound 143, (S)-2-(5-(2-fluorophenyl)-4-(4-isobutyryl-2-methylpiperazin-1-yl)-7H-pyrrolo[2,3-d]pyrimidin-7-yl)-6-methylisonicotinonitrile], the concentration for a half-maximal effect (EC50) at TRPML2, at human TRPML1 and on TRPML3 was 100 to 500 nM each time.

With `CC(C)C(=O)N1CCN(c2ncnc3c2c(N2CCCC2)cn3-c2cc(C#N)ccn2)[C@@H](C)C1` [Compound 144, (S)-2-(4-(4-isobutyryl-2-methylpiperazin-1-yl)-5-(pyrrolidin-1-yl)-7H-pyrrolo[2,3-d]pyrimidin-7-yl)isonicotinonitrile], the concentration for a half-maximal effect (EC50) on TRPML2 was 100 to 500 nM; on human TRPML1, less than 100 nM; at TRPML3, 100 to 500 nM.

With `CC(C)C(=O)N1CCN(c2ncnc3c2c(-c2ccccc2F)cn3-c2cc(C#N)n(C)n2)[C@@H](C)C1` [Compound 146, (S)-3-(5-(2-fluorophenyl)-4-(4-isobutyryl-2-methylpiperazin-1-yl)-7H-pyrrolo[2,3-d]pyrimidin-7-yl)-1-methyl-1H-pyrazole-5-carbonitrile], the results for the half-maximal effective concentration (EC50) at TRPML2, on human TRPML1 and at TRPML3 were 500 to 2000 nM, 100 to 500 nM and 100 to 500 nM, respectively.

`CC(C)C(=O)N1CCN(c2ncnc3c2c(-c2ccccc2F)cn3-c2cc(C#N)ccn2)C(C)(C)C1` [Compound 149, 2-(5-(2-fluorophenyl)-4-(4-isobutyryl-2,2-dimethylpiperazin-1-yl)-7H-pyrrolo[2,3-d]pyrimidin-7-yl)isonicotinonitrile]: the EC50 at TRPML2, at human TRPML1 and on TRPML3 was less than 100 nM each time.

With `C[C@@H]1CN(c2ncnc3c2c(C2CC2)cn3-c2cc(C#N)ccn2)[C@@H](C)CN1C(=O)CC(C)(C)C` [Compound 153, 2-(5-cyclopropyl-4-((2S,5R)-4-(3,3-dimethylbutanoyl)-2,5-dimethylpiperazin-1-yl)-7H-pyrrolo[2,3-d]pyrimidin-7-yl)isonicotinonitrile], the half-maximal effective concentration (EC50) at TRPML2 is 500 to 2000 nM; at human TRPML1, less than 100 nM; on TRPML3 it was less than 100 nM.
